From patent publication EP0489933A1, “BILE ALCOHOL AND DRUG CONTAINING THE SAME AS ACTIVE INGREDIENT” (TSUMURA CO., LTD., priority 1990, dated 1992)

How the values were obtained:
[1] = test system: red blood cells; experiment: Inhibition of thermal hemolysis of red blood cells; assay type: cell-based, donryu rats; details: 53°C for 20 minutes; for inhibition at 10 µM / inhibition at 50 µM / inhibition at 100 µM / inhibition at 200 µM / inhibition at 500 µM: Rattus norvegicus, Erythrocyte, 20 min, read-out: Hemolysis Inhibition Ratio (%) against Control
Method: Blood was collected from donryu rats of 150 to 200 g in body weight and centrifuged at 1,500 rpm for 5 minutes to obtain red blood cells. The red blood cells thus collected were diluted with 0.15 M phosphate buffer (pH 7.4) to prepare a 5% red blood cell suspension. A 3.8 ml portion of the thus prepared suspension was mixed with 0.2 ml solution of each compound of the present invention which has been adjusted to each level of the concentrations as shown in the following table, and the resulting mixture was shaken thoroughly and incubated at 53°C for 20 minutes. Thereafter, the thus incubated mixture was cooled rapidly with tap water and centrifuged at 3,000 rpm for 15 minutes, and absorbance at 540 nm of the resulting supernatant fluid was measured using a spectrophotometer (Hitachi: Type 200-20). Inhibition rate (%) of red blood cell hemolysis at each concentration of the compound was calculated based on the absorbance, with the results shown in Table 8.

[2] = test system: male rats of SD line; experiment: High cholesterol feed: blood viscosity, serum total cholesterol, triglyceride, GOT; assay type: in vivo; details: 100 mg/kg/day, p.o., 4 days
Method: In this experiment, 5-week-old male rats of SD line (5 individuals per one group) were used after rearing them for 1 week using normal feed, and each compound of the present invention (100 mg/kg) was administered orally once a day for 4 days. Simultaneously with the commencement of the administration, the normal feed was replaced by a high cholesterol feed. After completion of the administration, they were subjected to fasting treatment for 24 hours. Thereafter, each rat was subjected to ventrotomy under anesthesia with Nembutal® (Dainabot Co., Ltd.; 50 mg/kg, i.p.) to collect blood from abdominal aorta, and the collected blood sample was checked for its blood viscosity using a viscometer (Biolyzer, Tokyo Keiki Co., Ltd.). At the same time, total cholesterol (Wako Pure Chemical Industries, Ltd.; Cholesterol E-test wako), triglyceride (Wako Pure Chemical Industries, Ltd.; Triglyceride G-test wako) and GOT (Wako Pure Chemical Industries, Ltd.; GOT-UV test-wako) in serum samples were measured.

[3] = Blood plasma clotting time after oral administration; assay type: in vivo, male rats of Wistar line; details: 30 mg/kg, p.o.; blood collected 90 minutes after administration; calcium chloride, 37°C
Method: In this experiment, 9-week-old male rats of Wistar line (5 to 6 individuals per one group) were used after rearing them for 1 week with normal feed. After 24 hours of fasting, each test drug was administered orally and, 90 minutes thereafter, blood sample was collected from lower abdominal vena cava of each rat under anesthesia with Nembutal® (1 ml/kg, i.p.). Blood samples obtained in this way were checked for their blood clotting time and erythrocyte deformability.
Measuring procedures are as follows.
Blood clotting time ... Collected blood sample is centrifuged at 3,500 rpm for 10 minutes to obtain blood plasma. The blood plasma is pre-incubated for 1 minute in a water bath controlled at 37°C, mixed with calcium chloride and then shaken at 20 second intervals to measure a time required for its clotting.

Row | SMILES | Hemolysis Inhibition Ratio (%) against Control ([1]; 0.01 mM) [%] | Hemolysis Inhibition Ratio (%) against Control ([1]; 0.05 mM) [%] | Hemolysis Inhibition Ratio (%) against Control ([1]; 0.1 mM) [%] | Hemolysis Inhibition Ratio (%) against Control ([1]; 0.2 mM) [%] | Hemolysis Inhibition Ratio (%) against Control ([1]; 0.5 mM) [%] | GOT ±S.E. [2] [IU/ℓ] | Total Cholesterol ±S.E. [2] [mg/dL] | Triglyceride ±S.E. [2] [mg/dL] | Plasma Clotting Time ± S.E. [3] [s] | inhibition at 10 µM ([1]; 0.01 mM) [%] | inhibition at 50 µM ([1]; 0.05 mM) [%] | inhibition at 100 µM ([1]; 0.1 mM) [%] | inhibition at 200 µM ([1]; 0.2 mM) [%] | inhibition at 500 µM ([1]; 0.5 mM) [%]
1 | C[C@H](CC[C@@H](O)CCO)[C@H]1CC[C@H]2[C@@H]3[C@H](O)C[C@@H]4C[C@H](O)CC[C@]4(C)[C@H]3C[C@H](O)[C@]12C [Illustrative Example 2, 27-nor-(24R)-(+)-3α,7α,12α,24,26-pentahydroxy-5β-cholestane] | 31 | 23 | 38 | 60 | 71 | 141 ± 6 | 444 ± 61 | 101 ± 42 | 201 ± 4.1 | – | – | – | – | –
2 | C[C@H](CO)[C@H](O)CC[C@@H](C)[C@H]1CC[C@H]2[C@@H]3[C@H](O)C[C@@H]4C[C@H](O)CC[C@]4(C)[C@H]3C[C@H](O)[C@]12C [Example 12, (24R)-(25R)-3α,7α,12α,24,26-pentahydroxy-5β-cholestane] | – | – | – | – | – | 141 ± 17 | 475 ± 75 | 115 ± 39 | – | 24 | 20 | 33 | 48 | 55
3 | C[C@H](CC[C@H](O)[C@@H](C)CO)[C@H]1CC[C@H]2[C@@H]3[C@H](O)C[C@@H]4C[C@H](O)CC[C@]4(C)[C@H]3C[C@H](O)[C@]12C [Example 9, (24S)-(25S)-3α,7α,12α,24,26-pentahydroxy-5β-cholestane] | – | – | – | – | – | 138 ± 8 | 441 ± 51 | 89 ± 41 | – | 28 | 23 | 38 | 51 | 65
4 | C[C@H](CC[C@@H](O)[C@@H](C)CO)[C@H]1CC[C@H]2[C@@H]3[C@H](O)C[C@@H]4C[C@H](O)CC[C@]4(C)[C@H]3C[C@H](O)[C@]12C [Example 11, (24R)-(25S)-3α,7α,12α,24,26-pentahydroxy-5β-cholestane] | – | – | – | – | – | 151 ± 15 | 433 ± 71 | 110 ± 33 | – | 20 | 18 | 30 | 43 | 51
5 | C[C@H](CCCC(CO)CO)[C@H]1CC[C@H]2[C@@H]3[C@H](O)C[C@H]4C[C@H](O)CC[C@]4(C)[C@H]3C[C@H](O)[C@]12C [Example 7, 3α,7α,12α,26,27-pentahydroxy-5α-cholestane] | – | – | – | – | – | 138 ± 18 | 385 ± 58 | 92 ± 31 | – | 32 | 21 | 31 | 61 | 70
6 | C[C@H](CC[C@H](O)C(CO)CO)[C@H]1CC[C@H]2[C@@H]3[C@H](O)C[C@@H]4C[C@H](O)CC[C@]4(C)[C@H]3C[C@H](O)[C@]12C [Example 8, (24S)-3α,7α,12α,24,26,27-hexahydroxy-5β-cholestane] | – | – | – | – | – | 140 ± 13 | 410 ± 40 | 87 ± 15 | – | 27 | 20 | 37 | 50 | 60
7 | C[C@H](CCCC(C)(O)CO)[C@H]1CC[C@H]2[C@@H]3[C@H](O)C[C@@H]4C[C@H](O)CC[C@]4(C)[C@H]3C[C@H](O)[C@]12C (stereo partly drawn) [Illustrative Example 4, 5β-cholestane-3α,7α,12α,25,26-pentol] | – | – | – | – | – | 116 ± 31 | 450 ± 59 | 108 ± 38 | – | 27 | 25 | 41 | 42 | 49
